This is an account of results in patent publication US10869873B2 (priority 2011, dated 2020).

Series [1] relates to HeLa-derived TZM-b1 cells. The experiment in a line: Viability of HIV-1 infected TZM-b1 cells. The format is cell-based, human. As to conditions: HIV-1 infected TZM-b1 cells treated daily for 4 days. An excerpt:
To test the hypothesis that AAK1 and GAK are important for HIV infection, HeLa-derived TZM-b1 cells were used, which express CD4, CCR5 and CXCR4, as well as β-galactosidase and firefly luciferase reporter genes responsive to HIV transcription (Wei et al., Antimicrobial agents and chemotherapy 46:1896-1905, 2002). Cells were transfected with siRNAs targeting AAK1, GAK or a NT sequence followed by infection with the infectious HIV-1 NL4-3 clone (Adachi et al., J Virol 59:284-291, 1986), as described (Zhou et al., Cell Host & Microbe 4:495-504, 2008). Luciferase activity was measured at 96 hr postinfection.
Following 24, 48, and 72 hrs of treatment with inhibitory compounds or silencing with siRNAs, cells were incubated for 2-4 hrs at 37° C. in the presence of 10% AlamarBlue reagent (TREK Diagnostic Systems), as described (Einav et al., Nature Biotechnology 26, 1019-1027, 2008). Plates were then scanned and fluorescence was detected by using FLEXstation II 384 (Molecular Devices, Inc.).

For the next series, the system named is HIV-1 NL4-3. Briefly: HIV replication assay in TZM-b1 cells, luciferase. The format is cell-based. To be noted: for antiviral effect on HIV replication: HIV-1 infected TZM-b1 cells treated daily with serial dilutions for 4 days; for EC50: Human immunodeficiency virus 1, NL43, TZM-b1, 96 h, read-out: EC50, HIV replication.
In a further series the test system is core-AP2M1 binding. Briefly: Core-AP2M1 co-immunoprecipitation in membranes of HCV infected Huh-7.5 cells. The format is cell-based, HCV core / human AP2M1. As to conditions: membranes of Huh-7.5 cells infected with J6/JFH, 100 nM calyculin-A. On the procedure: To determine whether core binds AP2M1 in the context of authentic HCV infection, co-immunoprecipitation assays in membrane fractions prepared from Huh-7.5 cells infected with cell culture-grown HCV (J6/JFH) were performed (Lindenbach et al., Science 309:623-626, 2005). AP2M1 could bring down core when anti-AP2M1 antibodies but not IgG controls were added to the membrane lysates. […] (FIG. 2D). […] Colocalization of core with AP2M1 in Huh-7.5 cells 72 hr following electroporation with J6/JFH HCV RNA was also investigated.
Membranes were prepared from ˜20×10^6 Huh-7.5 cells infected with HCV (J6/JFH) (Lindenbach, et al., Science 309, 623-626, 2005), as previously described (Einav et al., J Virol 78, 11288-11295, 2004). Briefly, cells were collected by trypsinization, washed once with PBS and resuspended in HME buffer (20 mM HEPES [pH 7.4], 1 mM EDTA, 2 mM MgCl2), supplemented with phenylmethylsulfonyl fluoride to a final concentration of 1 mM and a protease inhibitors cocktail (Sigma). Cells were lysed by two cycles of freeze-thaw in dry ice-ethanol and then passaged through a 27.5-gauge needle 10 times. Nuclei were removed by centrifugation at 250×g for 10 min, and the postnuclear supernatant was subjected to ultracentrifugation at 100,000×g for 30 min to obtain the membrane preparation. All steps were done at 4° C. […] Immunoprecipitates were analyzed by western blotting. […]

For the molecule `CO[C@@H]1[C@H](N(C)C(=O)c2ccccc2)C[C@H]2O[C@]1(C)n1c3ccccc3c3c4c(c5c6ccccc6n2c5c31)C(=O)NC4` [PKC-412], in series [1], the effect on viability entry is on record as “no effect on viability”. For the same molecule, the “antiviral effect on HIV replication” value in the series with HIV-1 NL4-3 is listed as “significant dose response antiviral effect”.
`COC[C@@H]([C@H](O)[C@H](O)C(=O)NCC[C@H](C)c1nc(/C=C/C[C@@H]2O[C@]3(C[C@@H](O)[C@@H]2C)O[C@H]([C@H](C[C@H](O)[C@H](C)[C@H](O)[C@H](C)/C=C(C)/C(C)=C/C=C/C(C)=C\C#N)OC)[C@H](OP(=O)(O)O)C3(C)C)co1)N(C)C` [calyculin A]: in the series on core-AP2M1 binding, the “binding of core to AP2M1 (co-immunoprecipitation)” value is given as “significantly augmented”.
In the case of `C#Cc1cccc(Nc2ncnc3cc(OCCOC)c(OCCOC)cc23)c1` [erlotinib], the effect on viability entry in series [1] was “no effect on viability”. Moreover, in the series with HIV-1 NL4-3, the “antiviral effect on HIV replication” value is “significant dose response antiviral effect” and the EC50 came out at 1400 ± 300 nM.
As to `CCN(CC)CCNC(=O)c1c(C)[nH]c(/C=C2\C(=O)Nc3ccc(F)cc32)c1C` [sunitinib], the effect on viability result in series [1] is on record as “no effect on viability”. The EC50 in the series on HIV-1 NL4-3 was 800 ± 400 nM.
